# Source: patent US9345703B2, “Kappa opioid receptor effectors and uses thereof” (University of Kansas, priority 2011, dated 2016)
# Columns and labels:
# [1] = biological target: D2 (Homo sapiens, UniProt P14416); assay: PDSP radioligand binding assay
# Description: (§1) The compound was initially screened in radioligand binding assays at a constant concentration (10 μM) to identify possible activity of the compound. Results showing significant activity in the initial screen were selected for Ki determinations.
# (§2) As a representative of the Chemotype II series, the MLPCN probe molecule 2{8} was subjected to a binding assay panel of 44 GPCR and other molecular targets by the Pyschoactive Drug Screening Program (PDSP) (Table 10). The compound was initially screened in a radioligand binding assay at a constant concentration (10 μM) to identify possible activity of the compound. Results showing significant activity in the initial screen were selected for Ki determinations.
# [2] = biological target: 5ht1a (Homo sapiens, UniProt P08908); assay: PDSP radioligand binding assay
# Description: as §1, §2
# [3] = biological target: H1 (Homo sapiens, UniProt P35367); assay: PDSP radioligand binding assay
# Description: as §1, §2
# [4] = biological target: M2 (Homo sapiens, UniProt P08172); assay: PDSP radioligand binding assay
# Description: as §1, §2
# [5] = biological target: Sigma2 (Rattus norvegicus, UniProt Q5U3Y7); assay: PDSP radioligand binding assay
# Description: as §1, §2
# [6] = biological target: Sigma1; assay: PDSP radioligand binding assay
# Description: as §1, §2
# [7] = biological target: M5 (Homo sapiens, UniProt P08912); assay: PDSP radioligand binding assay
# Description: as §1, §2
# [8] = biological target: M3 (Homo sapiens, UniProt P20309); assay: PDSP radioligand binding assay
# Description: as §1, §2
# [9] = biological target: 5ht1d (Homo sapiens, UniProt P28221); assay: PDSP radioligand binding assay
# Description: as §1, §2
# [10] = biological target: Beta1 (Homo sapiens, UniProt P08588); assay: PDSP radioligand binding assay
# Description: as §1, §2
# [11] = biological target: 5ht1b (Homo sapiens, UniProt P28222); assay: PDSP radioligand binding assay
# Description: as §1, §2
# [12] = biological target: GabaA; assay: PDSP radioligand binding assay
# Description: as §1, §2
# [13] = biological target: Beta3 (Homo sapiens, UniProt P13945); assay: PDSP radioligand binding assay
# Description: as §1, §2
# [14] = biological target: Alpha2B (Homo sapiens, UniProt P18089); assay: PDSP radioligand binding assay
# Description: as §1, §2
# [15] = biological target: BZP Rat Brain Site; assay: PDSP radioligand binding assay
# Description: as §1, §2
# [16] = biological target: 5ht5a (Homo sapiens, UniProt P47898); assay: PDSP radioligand binding assay
# Description: as §1, §2
# [17] = biological target: D5 (Homo sapiens, UniProt P21918); assay: PDSP radioligand binding assay
# Description: as §1, §2
# [18] = biological target: Alpha1B (Homo sapiens, UniProt P35368); assay: PDSP radioligand binding assay
# Description: as §1, §2
# [19] = biological target: 5ht2c (Homo sapiens, UniProt P28335); assay: PDSP radioligand binding assay
# Description: as §1, §2
# [20] = biological target: 5ht2a (Homo sapiens, UniProt P28223); assay: PDSP radioligand binding assay
# Description: as §1, §2
# [21] = biological target: 5ht7 (Homo sapiens, UniProt P34969); assay: PDSP radioligand binding assay
# Description: as §1, §2
# [22] = biological target: H3 (Homo sapiens, UniProt Q9Y5N1); assay: PDSP radioligand binding assay
# Description: as §1, §2
# [23] = biological target: 5ht2b (Homo sapiens, UniProt P41595); assay: PDSP radioligand binding assay
# Description: as §1, §2
# [24] = biological target: M1 (Homo sapiens, UniProt P11229); assay: PDSP radioligand binding assay
# Description: as §1, §2
# [25] = biological target: Alpha2C (Homo sapiens, UniProt P18825); assay: PDSP radioligand binding assay
# Description: as §1, §2
# [26] = biological target: SERT (Homo sapiens, UniProt P31645); assay: PDSP radioligand binding assay
# Description: as §1, §2
# [27] = biological target: Alpha2A (Homo sapiens, UniProt P08913); assay: PDSP radioligand binding assay
# Description: as §1, §2
# [28] = biological target: D1 (Homo sapiens, UniProt P21728); assay: PDSP radioligand binding assay
# Description: as §1, §2
# [29] = biological target: Alpha1D (Homo sapiens, UniProt P25100); assay: PDSP radioligand binding assay
# Description: as §1, §2
# [30] = biological target: H4 (Homo sapiens, UniProt Q9H3N8); assay: PDSP radioligand binding assay
# Description: as §1, §2
# [31] = biological target: D4 (Homo sapiens, UniProt P21917); assay: PDSP radioligand binding assay
# Description: as §1, §2
# [32] = biological target: DOR (Homo sapiens, UniProt P41143); assay: PDSP radioligand binding assay
# Description: as §1, with “The broader selectivity of compound 1{3} was tested against additional targets and basic pharmacological properties were assessed. […] The” for “The”
# as §2
# [33] = biological target: D3 (Homo sapiens, UniProt P35462); assay: PDSP radioligand binding assay
# Description: as §1, with “The broader selectivity of compound 1{3} was tested against additional targets and basic pharmacological properties were assessed. […] The” for “The”
# as §2
# [34] = biological target: MOR (Homo sapiens, UniProt P35372); assay: PDSP radioligand binding assay
# Description: as §1, with “The broader selectivity of compound 1{3} was tested against additional targets and basic pharmacological properties were assessed. […] The” for “The”
# as §2
# [35] = Plasma protein binding, human; format: in vitro ADME
# Text: Plasma protein binding is a measure of a drug's efficiency to bind to the proteins within blood plasma. The less bound a drug is, the more efficiently it can traverse cell membranes or diffuse. Highly plasma protein bound rugs are confined to the vascular space, thereby having a relatively low volume of distribution. In contrast, drugs that remain largely unbound in plasma are generally available for distribution to other organs and tissues. In the instant case, the Chemotype I antagonist 1{3} was marginally available with 88.46% and 80.07% bound to 1 μM and 10 μM mouse plasma protein, respectively, and 93.96% and 88.54% bound to 1 μM and 10 μM human plasma protein, respectively.
# [36] = Plasma stability, mouse; format: in vitro ADME
# Text: Plasma stability is a measure of the stability of small molecules and peptides in plasma and is an important parameter that can strongly influence the in vivo efficacy of a test compound. Drug candidates are exposed in plasma to enzymatic processes (proteinases, esterases), and they can undergo intramolecular rearrangement or bind irreversibly (covalently) to proteins.
# [37] = Table 10, average of separate Ki determinations
# Sequence of 5ht7 (P34969 whole entry, species assumed): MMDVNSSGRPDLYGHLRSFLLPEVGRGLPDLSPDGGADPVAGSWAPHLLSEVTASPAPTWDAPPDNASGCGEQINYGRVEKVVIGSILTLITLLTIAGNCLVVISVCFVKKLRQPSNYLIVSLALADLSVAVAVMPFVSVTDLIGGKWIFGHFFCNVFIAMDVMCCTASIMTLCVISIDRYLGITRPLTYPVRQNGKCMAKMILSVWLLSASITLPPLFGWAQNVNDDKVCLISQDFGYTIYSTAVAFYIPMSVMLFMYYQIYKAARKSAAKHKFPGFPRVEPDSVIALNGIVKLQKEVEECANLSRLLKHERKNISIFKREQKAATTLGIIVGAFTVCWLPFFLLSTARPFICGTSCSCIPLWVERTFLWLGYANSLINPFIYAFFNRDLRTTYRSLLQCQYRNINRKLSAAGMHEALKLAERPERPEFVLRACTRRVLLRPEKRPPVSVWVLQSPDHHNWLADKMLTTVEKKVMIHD
# Sequence of D2 (P14416 whole entry): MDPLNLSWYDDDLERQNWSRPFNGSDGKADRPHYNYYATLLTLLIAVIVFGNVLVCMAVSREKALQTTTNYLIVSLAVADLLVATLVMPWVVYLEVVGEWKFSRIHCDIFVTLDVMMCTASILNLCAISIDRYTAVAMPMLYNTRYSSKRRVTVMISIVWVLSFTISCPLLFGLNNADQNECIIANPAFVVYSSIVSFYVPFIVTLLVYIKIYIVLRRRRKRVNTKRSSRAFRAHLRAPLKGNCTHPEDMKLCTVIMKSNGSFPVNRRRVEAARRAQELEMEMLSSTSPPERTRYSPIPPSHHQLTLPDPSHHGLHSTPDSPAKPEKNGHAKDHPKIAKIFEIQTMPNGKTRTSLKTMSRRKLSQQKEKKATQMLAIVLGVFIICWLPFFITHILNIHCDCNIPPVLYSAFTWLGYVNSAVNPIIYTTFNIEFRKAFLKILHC
# Sequence of 5ht2c (P28335 33-458, species assumed): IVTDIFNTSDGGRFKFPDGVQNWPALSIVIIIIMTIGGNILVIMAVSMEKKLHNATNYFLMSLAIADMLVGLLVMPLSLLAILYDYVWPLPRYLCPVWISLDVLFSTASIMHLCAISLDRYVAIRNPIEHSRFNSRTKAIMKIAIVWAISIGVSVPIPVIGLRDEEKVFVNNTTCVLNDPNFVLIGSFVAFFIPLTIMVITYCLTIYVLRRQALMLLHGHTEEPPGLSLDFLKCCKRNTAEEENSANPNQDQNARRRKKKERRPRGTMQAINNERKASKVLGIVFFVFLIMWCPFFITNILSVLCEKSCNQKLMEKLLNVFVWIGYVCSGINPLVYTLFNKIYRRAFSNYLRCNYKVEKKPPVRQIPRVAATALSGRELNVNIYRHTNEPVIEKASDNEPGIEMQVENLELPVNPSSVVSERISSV
# Sequence of MOR (P35372 whole entry): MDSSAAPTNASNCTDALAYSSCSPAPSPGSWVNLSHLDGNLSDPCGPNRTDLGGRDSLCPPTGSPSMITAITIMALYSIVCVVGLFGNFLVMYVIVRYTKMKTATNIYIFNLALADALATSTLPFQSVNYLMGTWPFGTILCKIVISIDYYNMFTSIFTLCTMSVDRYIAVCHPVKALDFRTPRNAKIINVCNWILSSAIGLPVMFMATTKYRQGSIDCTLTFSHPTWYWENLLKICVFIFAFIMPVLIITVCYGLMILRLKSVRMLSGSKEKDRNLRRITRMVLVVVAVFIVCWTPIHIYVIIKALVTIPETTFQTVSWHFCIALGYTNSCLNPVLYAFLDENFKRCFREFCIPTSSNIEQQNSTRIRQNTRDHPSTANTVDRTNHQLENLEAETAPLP
# Sequence of 5ht5a (P47898 whole entry, species assumed): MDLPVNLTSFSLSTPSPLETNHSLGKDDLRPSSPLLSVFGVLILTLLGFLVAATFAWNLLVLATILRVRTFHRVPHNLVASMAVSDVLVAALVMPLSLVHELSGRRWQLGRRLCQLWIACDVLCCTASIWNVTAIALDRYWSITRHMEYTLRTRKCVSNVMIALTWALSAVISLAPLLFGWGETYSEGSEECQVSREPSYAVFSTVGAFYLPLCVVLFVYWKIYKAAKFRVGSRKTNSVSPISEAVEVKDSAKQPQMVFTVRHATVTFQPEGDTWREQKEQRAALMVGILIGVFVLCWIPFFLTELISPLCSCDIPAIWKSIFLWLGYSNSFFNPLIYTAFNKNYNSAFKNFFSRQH
# Sequence of H4 (Q9H3N8 whole entry): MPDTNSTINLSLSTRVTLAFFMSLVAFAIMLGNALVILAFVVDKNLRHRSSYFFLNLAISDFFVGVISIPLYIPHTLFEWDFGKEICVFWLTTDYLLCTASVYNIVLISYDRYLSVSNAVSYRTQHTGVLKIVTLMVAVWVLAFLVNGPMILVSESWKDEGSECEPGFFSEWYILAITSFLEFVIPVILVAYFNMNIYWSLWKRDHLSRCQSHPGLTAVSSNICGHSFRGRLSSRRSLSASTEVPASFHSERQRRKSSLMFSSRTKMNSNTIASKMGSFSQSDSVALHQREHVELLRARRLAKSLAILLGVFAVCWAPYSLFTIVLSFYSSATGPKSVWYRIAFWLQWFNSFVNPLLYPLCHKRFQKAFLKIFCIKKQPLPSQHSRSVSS
# Sequence of D4 (P21917 whole entry): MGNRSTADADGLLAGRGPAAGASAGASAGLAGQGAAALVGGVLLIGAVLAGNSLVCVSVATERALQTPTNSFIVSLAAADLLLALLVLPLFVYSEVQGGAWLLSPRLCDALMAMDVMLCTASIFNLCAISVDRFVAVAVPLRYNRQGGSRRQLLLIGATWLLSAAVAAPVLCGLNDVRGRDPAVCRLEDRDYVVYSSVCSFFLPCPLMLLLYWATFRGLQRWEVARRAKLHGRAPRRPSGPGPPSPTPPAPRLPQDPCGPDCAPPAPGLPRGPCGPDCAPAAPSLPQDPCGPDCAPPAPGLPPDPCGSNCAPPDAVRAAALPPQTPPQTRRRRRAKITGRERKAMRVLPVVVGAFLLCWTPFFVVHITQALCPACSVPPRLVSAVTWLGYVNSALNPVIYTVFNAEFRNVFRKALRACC
# Sequence of DOR (P41143 whole entry): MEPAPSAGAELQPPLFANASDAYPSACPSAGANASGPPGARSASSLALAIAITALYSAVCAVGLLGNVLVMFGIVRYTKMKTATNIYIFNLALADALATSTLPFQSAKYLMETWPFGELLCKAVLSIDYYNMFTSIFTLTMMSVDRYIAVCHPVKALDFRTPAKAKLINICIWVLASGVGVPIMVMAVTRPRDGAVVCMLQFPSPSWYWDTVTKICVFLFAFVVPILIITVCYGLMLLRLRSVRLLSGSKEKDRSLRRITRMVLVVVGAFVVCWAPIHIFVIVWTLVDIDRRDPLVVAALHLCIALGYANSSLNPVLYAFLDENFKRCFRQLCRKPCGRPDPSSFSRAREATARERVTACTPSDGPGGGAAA
# Sequence of 5ht2a (P28223 whole entry, species assumed): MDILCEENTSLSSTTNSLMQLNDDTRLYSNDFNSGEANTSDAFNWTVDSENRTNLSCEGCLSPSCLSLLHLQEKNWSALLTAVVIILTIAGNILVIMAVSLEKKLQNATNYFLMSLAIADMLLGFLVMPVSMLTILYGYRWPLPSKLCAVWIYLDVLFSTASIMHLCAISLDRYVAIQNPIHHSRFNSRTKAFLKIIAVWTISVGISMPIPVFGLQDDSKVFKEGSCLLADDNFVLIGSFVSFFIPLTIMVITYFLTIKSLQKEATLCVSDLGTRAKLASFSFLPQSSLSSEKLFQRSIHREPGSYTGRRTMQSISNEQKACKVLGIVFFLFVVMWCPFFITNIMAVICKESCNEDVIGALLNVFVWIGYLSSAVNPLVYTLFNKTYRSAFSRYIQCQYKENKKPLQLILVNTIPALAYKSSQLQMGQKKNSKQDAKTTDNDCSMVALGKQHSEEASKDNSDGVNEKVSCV
# Sequence of M1 (P11229 whole entry): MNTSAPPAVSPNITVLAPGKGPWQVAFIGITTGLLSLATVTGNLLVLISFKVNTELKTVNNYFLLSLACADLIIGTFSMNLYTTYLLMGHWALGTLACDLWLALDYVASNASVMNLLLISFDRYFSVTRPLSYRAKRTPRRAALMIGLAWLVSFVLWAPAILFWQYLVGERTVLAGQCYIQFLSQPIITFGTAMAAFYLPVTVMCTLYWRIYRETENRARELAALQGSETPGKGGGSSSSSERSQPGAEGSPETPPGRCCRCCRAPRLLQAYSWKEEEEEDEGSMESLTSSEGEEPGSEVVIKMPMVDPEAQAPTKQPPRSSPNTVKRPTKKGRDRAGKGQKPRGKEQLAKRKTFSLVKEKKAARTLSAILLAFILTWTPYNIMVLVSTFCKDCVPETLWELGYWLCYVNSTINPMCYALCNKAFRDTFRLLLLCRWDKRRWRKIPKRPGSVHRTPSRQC
# Sequence of H3 (Q9Y5N1 whole entry): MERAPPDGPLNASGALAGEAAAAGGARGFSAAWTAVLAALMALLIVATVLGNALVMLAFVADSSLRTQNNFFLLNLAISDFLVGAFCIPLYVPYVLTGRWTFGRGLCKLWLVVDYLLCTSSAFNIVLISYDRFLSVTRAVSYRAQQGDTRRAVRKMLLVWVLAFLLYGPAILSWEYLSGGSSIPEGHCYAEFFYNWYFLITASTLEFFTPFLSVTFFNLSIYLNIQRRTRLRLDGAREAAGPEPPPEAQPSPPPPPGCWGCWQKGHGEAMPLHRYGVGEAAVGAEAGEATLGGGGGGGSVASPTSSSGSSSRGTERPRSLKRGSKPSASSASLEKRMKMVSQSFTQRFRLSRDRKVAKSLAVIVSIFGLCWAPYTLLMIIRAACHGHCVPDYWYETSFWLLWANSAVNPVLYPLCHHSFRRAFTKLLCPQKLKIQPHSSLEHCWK
# Sequence of Sigma2 (Q5U3Y7 whole entry): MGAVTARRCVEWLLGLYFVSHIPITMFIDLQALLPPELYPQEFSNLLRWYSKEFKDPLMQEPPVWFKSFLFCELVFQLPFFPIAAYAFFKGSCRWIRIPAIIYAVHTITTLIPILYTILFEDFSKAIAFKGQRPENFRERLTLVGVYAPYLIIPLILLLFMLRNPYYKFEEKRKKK
smiles,measurement,setting,value
Clc1ccc(CSc2nnc(-c3ccccn3)n2Cc2ccco2)cc1Cl [Compound 2{8}],Ki,[1]; Table 10,> 10 µM
same,Ki,[2]; Table 10,> 10 µM
same,Ki,[3]; Table 10,> 10 µM
same,Ki,[4]; Table 10,> 10 µM
same,Ki,[5]; Table 10,2.91 µM
same,Ki,[6]; Table 10,> 10 µM
same,Ki,[7]; Table 10,4.42 µM
same,Ki,[8]; Table 10,> 10 µM
same,Ki,[9]; Table 10,> 10 µM
same,Ki,[10]; Table 10,> 10 µM
same,Ki,[11]; Table 10,> 10 µM
same,Ki,[12]; Table 10,> 10 µM
same,Ki,[13]; Table 10,7.31 µM
same,Ki,[14]; Table 10,5.53 µM
same,Ki,[15]; Table 10,> 10 µM
same,Ki,[16]; Table 10,4.99 µM
same,Ki,[17]; Table 10,7.02 µM
same,Ki,[18]; Table 10,> 10 µM
same,Ki,[19]; Table 10,> 10 µM
same,Ki,[20]; Table 10,3.79 µM
same,Ki,[21]; Table 10,> 10 µM
same,Ki,[22]; Table 10,> 10 µM
same,Ki,[23]; Table 10,1.24 µM
same,Ki,[24]; Table 10,> 10 µM
same,Ki,[25]; Table 10,9.6 µM
same,Ki,[26]; Table 10,> 10 µM
same,Ki,[27]; Table 10,> 10 µM
same,Ki,[28]; Table 10,1.8 µM
same,Ki,[29]; Table 10,> 10 µM
same,Ki,[30]; Table 10,> 10 µM
same,Ki,[31]; Table 10,> 10 µM
same,Ki,[32]; [37],5.35 µM
same,Ki,[33]; Table 10,> 10 µM
same,Ki,[34]; [37],1.9 µM
same,bound to plasma,[35]; human plasma,> 99%
same,"plasma stability, remaining","[36]; mouse plasma, 3 hours",100%
"COc1ccc(N2CCN(CCCNC(=O)Cn3c(=O)c4cccn4c4c(C)ccnc43)CC2)cc1 [Compound 1{3}, N-(3-(4-(4-Methoxyphenyl)piperazin-1-yl)propyl)-2-(1-methyl-6-oxopyrido[2,3-e]pyrrolo[1,2-a]pyrazin-5(6H)-yl)acetamide]",Ki,[1]; Table 5,1.35 µM
same,Ki,[2]; Table 5,> 10 µM
same,Ki,[3]; Table 5,0.454 µM
same,Ki,[4]; Table 5,> 10 µM
same,Ki,[5]; Table 5,> 10 µM
same,Ki,[6]; Table 5,> 10 µM
same,Ki,[7]; Table 5,6.4 µM
same,Ki,[8]; Table 5,> 10 µM
same,Ki,[9]; Table 5,0.702 µM
same,Ki,[10]; Table 5,> 10 µM
same,Ki,[11]; Table 5,> 10 µM
same,Ki,[12]; Table 5,> 10 µM
same,Ki,[13]; Table 5,> 10 µM
same,Ki,[14]; Table 5,7.7 µM
same,Ki,[15]; Table 5,> 10 µM
same,Ki,[16]; Table 5,> 10 µM
same,Ki,[17]; Table 5,> 10 µM
same,Ki,[18]; Table 5,> 10 µM
same,Ki,[19]; Table 5,> 10 µM
same,Ki,[20]; Table 5,> 10 µM
same,Ki,[21]; Table 5,> 10 µM
same,Ki,[22]; Table 5,> 10 µM
same,Ki,[23]; Table 5,1.92 µM
same,Ki,[24]; Table 5,> 10 µM
same,Ki,[25]; Table 5,0.694 µM
same,Ki,[26]; Table 5,5.33 µM
same,Ki,[27]; Table 5,> 10 µM
same,Ki,[28]; Table 5,> 10 µM
same,Ki,[29]; Table 5,> 10 µM
same,Ki,[30]; Table 5,> 10 µM
same,Ki,[31]; Table 5,> 10 µM
same,Ki,[32]; Table 5,1.44 µM
same,Ki,[33]; Table 5,0.25 µM
same,Ki,[34]; Table 5,1.58 µM
same,fraction unbound at 1 μM,"[35]; plasma, human, 1 μM, read-out: bound to plasma protein (converted)",0.0604
same,fraction unbound at 10 μM,"[35]; plasma, human, 10 μM, read-out: bound to plasma protein (converted)",0.115
same,"plasma stability, remaining","[36]; mouse, plasma, 3 h",100%
